Source: patent US20260285816A1, “Piperazinyl-Modified Quinazolinyl-Aryl Urea Derivative, And Preparation Method And Use Thereof” (Guangxi Normal University, priority 2025, published 2026)

How the values were obtained:
bladder cancer J82 cells = assay: J82 tumor-bearing nude mouse model; format: in vivo, BALB/c-nu mice
Experimental: (§1) Experimental method: bladder cancer J82 cells in logarithmic growth phase were trypsinized, collected, and then centrifuged, and resuspended in serum-free DMEM medium after discarding an original medium. Cell density was adjusted, and 0.2 mL cell suspension was subcutaneously inoculated into 5-week-old BALB/c-nu mice (sex-balanced, 18-20 g) under a laminar flow clean bench. Post-inoculation, bleeding at injection sites was monitored. When tumors reached 50-80 mm^3, nude mice with good tumor growth status were randomized into 5 groups (n=6/group) for intraperitoneal administration. Tumor volume and body weight were recorded on Day 0. […] Dosing occurred every 2 d for 42 d. After administering the drug, mice were monitored for diarrhea, anorexia, lethargy, and allergic reactions (e.g., pruritus). The body weight of nude mice was measured every 2 days, and the long and short diameters of the tumors in nude mice were measured by using a vernier caliper, then the recording was finished.
0.9% normal saline was added thereto to obtain a solution, which was sterilized under UV light for 30 min. Administration volume was 10 mL/kg per mouse. The preparation contained PEG400 and 0.9% normal saline at a 3:1 volume ratio, with 2% (v/v) DMA.

[1] = tested on: FoxM1, KIF20A, Nrf2, xCT, GPx4, FTH1, HO-1, IRP2, CD71 in bladder cancer T24 cells; assay: Western blot of cell cycle- and ferroptosis-related proteins; format: cell-based, human
Experimental: Experimental method: bladder cancer T24 cells in logarithmic growth phase were inoculated into 100 mm culture dishes. After 70% confluency was reached, medium was replaced and treated with compound 8-1j or ferroptosis inhibitor Fer-1. Post-co-incubation, cells were trypsinized, collected, and washed with pre-cooled PBS. 0.2 mL of RIPA cell lysis buffer was added to each tube, mixed thoroughly, and transferred to a 1.5 mL centrifuge tube, and lysed on ice with agitation for 30 min. Lysates were centrifuged at 12,000 rpm (4° C., 10 min) to collect supernatants. Supernatants were mixed with 5×SDS-PAGE protein loading buffer, heated at 95° C. for 7 min, and stored at −80° C. SDS-PAGE (sodium dodecyl sulfate-polyacrylamide gel electrophoresis) was conducted at 80 V until entry into separating gel, then at 120 V until bromophenol blue reached the gel bottom. Gels were cut according to molecular weight indicated by Marker, transferred to membranes, blocked, and then immune reaction was performed. Protein bands were visualized by an enhanced chemiluminescence (ECL) detection system. Band densities were analyzed using ImageJ software. Three repeated experiments were conducted.

T24 cells = assay: Cell cycle analysis (PI staining, flow cytometry), T24; format: cell-based, human
Experimental: (§2) Tumor cells (T24, UM-UC-3, 143B, BxPC-3) in logarithmic growth phase were inoculated into 70 mm culture dishes. After 70% confluency was reached, medium was replaced and treated with: compound 8-1j, ferroptosis inducer Erastin, or cell cycle blocker paclitaxel (PTX) for a specified duration. Post-incubation, cells were trypsinized, collected, centrifuged, and washed 2 times with pre-cooled phosphate-buffered saline (PBS). Pre-cooled 75% ethanol was added dropwise during vortexing for fixation at −20° C. overnight. After centrifugation (10 min), supernatant was discarded. Cells were rewashed with PBS and centrifuged. Following kit instructions (Beyotime, C1052, China), 0.5 mL staining buffer, 25 μL PI (propidium iodide) stain (20×), and 10 μL RNase A (50×) were mixed per sample. Cells were resuspended in PI staining solution and incubated at 37° C. in dark for 30 min (gentle shaking every 10 min). Samples were filtered through 200-mesh filters, transferred into a flow tube, and analyzed via BD FACSVerse flow cytometer. All experiments were conducted in 3 repeats. Compounds 8-2h and 8-2j were evaluated identically.

143B cells = assay: Cell cycle analysis (PI staining, flow cytometry), 143B; format: cell-based, human
Experimental: as §2

human osteosarcoma 143B = assay: 143B tumor-bearing nude mouse model; format: in vivo, nude mice; conditions: 40 mg/kg oral gavage, every 2 d, 42 d
Experimental: as §1
Construction of the human osteosarcoma 143B tumor-bearing nude mouse model followed similar procedures, with identical dosing frequency but administration route changed to oral gavage. Specifically: When tumors reached 60-90 mm^3, mice were randomized into 4 groups (n=6). […]

[2] = tested on: human pancreatic cancer BxPC-3; assay: BxPC-3 tumor-bearing nude mouse model; format: in vivo, nude mice; design: Tumor growth control, high dose: dose or concentration left out as unconfirmed
BxPC-3 cells = assay: Cell cycle analysis (PI staining, flow cytometry), BxPC-3; format: cell-based, human
Experimental: as §2

[3] = 20 mg/kg intraperitoneal, every 2 d for 42 d

| Compound | Body weight and tolerability observations (bladder cancer J82 cells; [3]) | Tumor growth rates vs. vehicle control and equi-dose positive control (bladder cancer J82 cells; [3]) | Anti-tumor efficacy compared with 9g (A-2) (bladder cancer J82 cells; at 20 mg/kg intraperitoneal) | Ferroptosis-related proteins HO-1, IRP2, and CD71 expression [1] | FoxM1, KIF20A, Nrf2, xCT, GPx4, and FTH1 expression ([1]; concentration-dependently) | Effect of co-administration with PTX on cell cycle (T24 cells; T24, with PTX) | Cell cycle arrest phase (T24 cells; T24 cells (FIG. 44)) | Cell cycle arrest phase (143B cells; 143B cells (FIG. 46)) | Effect of co-administration with PTX on cell cycle (143B cells; 143B, with PTX) | Tumor inhibition (human osteosarcoma 143B) | Tumor growth control, high dose [2] | Tumor after continued administration ([2]; high dose, oral gavage, up to 42 d) | Toxicity observations ([2]; oral gavage, gemcitabine 24 mg/kg, 8-2h 12, 24, 36 mg/kg) | Cell cycle arrest phase, high concentration (BxPC-3 cells; high concentration (>6 μM)) | Cell cycle arrest phase, low concentration (BxPC-3 cells; low concentration (e.g., 3 μM)) | Effect of co-administration with PTX on cell cycle (BxPC-3 cells; with PTX) |
| --- | --- | --- | --- | --- | --- | --- | --- | --- | --- | --- | --- | --- | --- | --- | --- | --- |
| COc1cc2ncnc(NCc3cccc(NC(=O)Nc4ccc(C(C)(C)C)cc4)c3)c2cc1OCCCCCCN1CCN(CCN2CCOCC2)CC1 [Compound 8-1j, N-(3-(((7-methoxy-6-((6-(4-(2-morpholinoethyl)piperazin-1-yl)hexyl)oxy)quinazolin-4-yl)amino)methyl)phenyl)-N′-(4-tert-butylphenyl)urea] | Mild weight loss occurs without anorexia, diarrhea, or pruritus | significantly lower | surpassed that of 9g (A-2) | upregulating | significantly downregulates | Synergistic effects | arrest cell cycle at G2/M phase | arrest cell cycle at G2/M phase | Synergistic effects | significantly stronger tumor inhibition than positive control Apat | – | – | – | – | – | – |
| CCc1cccc(CC)c1NC(=O)Nc1cccc(CNc2ncnc3cc(OC)c(OCCCCCCN4CCC(CN5CCN(c6ccccn6)CC5)CC4)cc23)c1 [Compound 8-2h, N-(3-(((7-methoxy-6-((6-(4-((4-(pyridin-2-yl)piperazin-1-yl)methyl)piperidin-1-yl)hexyl)oxy)quinazolin-4-yl)amino)methyl)phenyl)-N′-(2,6-diethylphenyl)urea] | – | – | – | – | – | – | – | – | – | – | controls tumor growth by Day 28 | significantly shrank | no toxicity | G2/M arrest | G0/G1 arrest | Synergistic effects |
